Reference: ChEMBL document CHEMBL5696439 (Cancer Res, 2010)
Active and inactive are the calls of the source. No cut-off for these calls is given here.

How the values were obtained:
[1] = molecular target: Casein kinase II subunit alpha' (Homo sapiens) (UniProt P19784); assay: Inhibition of recombinant human full-length GST-tagged CSNK2A2 expressed in insect cells at 2 uM using Ser/Thr 11 as substrate measured after 1 hr by Z'-LYTE assay relative to control; conditions: Insect cell
[2] = molecular target: Protein kinase C theta type (Homo sapiens) (UniProt Q04759); assay: Inhibition of recombinant human PRKCQ at 2 uM using Ser/Thr 07 as substrate measured after 1 hr by Z'-LYTE assay relative to control
[3] = molecular target: Tyrosine-protein kinase HCK (Homo sapiens) (UniProt P08631); assay: Inhibition of recombinant human full-length GST-tagged HCK expressed in insect cells at 2 uM using Tyr 02 as substrate measured after 1 hr by Z'-LYTE assay relative to control; conditions: Insect cell
[4] = molecular target: Inhibitor of nuclear factor kappa-B kinase subunit beta (Homo sapiens) (UniProt O14920); assay: Inhibition of recombinant human full-length GST-tagged IKBKB expressed in insect cells at 2 uM using Ser/Thr 05 as substrate measured after 1 hr by Z'-LYTE assay relative to control; conditions: Insect cell
mTORC2 (Homo sapiens) [5] = molecular target: T1, mTORC2 (Homo sapiens) (UniProt P42345+Q6R327+Q9BVC4+Q9BPZ7); conditions: U-87 MG, dose 0.025-2 µmol/L, time 6.0 hrs
MDA-MB-361 [6] = assay: Antitumor activity against human MDA-MB-361 cells xenografted in female nude mouse model assessed as tumor growth delay at po qd administered as 5 days on/2 days off regimen for 4 cycles; format: functional, organism-based; conditions: dose 5-20 mg/kg, time 28.0 day
[7] = tested on: Tyrosine-protein kinase ABL1 (Homo sapiens), P00519 [E255K]; assay: Inhibition of recombinant human full-length His-tagged ABL1 E255K mutant expressed in insect cells at 2 uM using Tyr 02 as substrate measured after 1 hr by Z'-LYTE assay relative to control; conditions: Insect cell
mTORC2 (Homo sapiens) [8] = molecular target: T1, mTORC2 (Homo sapiens); conditions: U-87 MG, dose 0.025-2 µmol/L, time 6.0 hrs; remark: listed apart in the source
[9] = molecular target: Serine/threonine-protein kinase MARK1 (Homo sapiens) (UniProt Q9P0L2); assay: Inhibition of recombinant human full length GST-tagged MARK1 expressed in baculovirus expression system at 2 uM using Ser/Thr 21 as substrate measured after 1 hr by Z'-LYTE assay relative to control
Serine/threonine-protein kinase MARK1 (Homo sapiens), sequence (Q9P0L2 whole entry, looked up, the tested form may be a part): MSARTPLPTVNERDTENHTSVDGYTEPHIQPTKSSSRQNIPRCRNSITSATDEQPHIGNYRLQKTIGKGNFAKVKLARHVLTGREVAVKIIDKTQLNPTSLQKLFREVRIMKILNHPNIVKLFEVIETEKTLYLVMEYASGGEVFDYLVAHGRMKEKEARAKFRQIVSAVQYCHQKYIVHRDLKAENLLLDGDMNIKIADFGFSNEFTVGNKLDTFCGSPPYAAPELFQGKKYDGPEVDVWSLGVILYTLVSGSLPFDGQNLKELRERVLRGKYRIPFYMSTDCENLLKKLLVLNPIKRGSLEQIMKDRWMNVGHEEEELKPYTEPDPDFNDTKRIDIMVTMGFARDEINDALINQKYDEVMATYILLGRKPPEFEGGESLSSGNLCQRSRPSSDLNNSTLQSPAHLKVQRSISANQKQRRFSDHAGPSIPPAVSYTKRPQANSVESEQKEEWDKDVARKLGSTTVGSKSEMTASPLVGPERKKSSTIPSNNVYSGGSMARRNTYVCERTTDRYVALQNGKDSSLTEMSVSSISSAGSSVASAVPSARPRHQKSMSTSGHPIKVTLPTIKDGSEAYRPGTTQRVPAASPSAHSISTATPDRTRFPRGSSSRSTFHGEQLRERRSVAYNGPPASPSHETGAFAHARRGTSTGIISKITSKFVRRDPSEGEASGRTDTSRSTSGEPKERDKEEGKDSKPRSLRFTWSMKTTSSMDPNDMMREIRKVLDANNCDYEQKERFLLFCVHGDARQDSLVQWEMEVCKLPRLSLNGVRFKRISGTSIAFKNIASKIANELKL

[10] = tested on: Receptor-type tyrosine-protein kinase FLT3 (Homo sapiens), P36888 [D835Y]; assay: Inhibition of recombinant human His-tagged FLT3 D835Y mutant (564-958 residues) expressed in insect cells at 2 uM using Tyr 02 as substrate measured after 1 hr by Z'-LYTE assay relative to control; conditions: Insect cell
[11] = tested on: Mast/stem cell growth factor receptor Kit (Homo sapiens), P10721 [T670I]; assay: Inhibition of recombinant human His-tagged KIT T670I mutant (544-976 residues) expressed in insect cells at 2 uM using […] as substrate measured after 1 hr by Z'-LYTE assay relative to control
A549 = assay: Induction of apoptosis in human A549 cells assessed as reduction in S phase at 1 micromol/L incubated for 24 hrs by FACS analysis; format: functional, cell-based; conditions: dose 1.0 µmol/L
[12] = molecular target: Platelet-derived growth factor receptor beta (Homo sapiens) (UniProt P09619); assay: Inhibition of recombinant human His-tagged PDGFRB (558-1106 residues) expressed in baculovirus expression system at 2 uM using Tyr 04 as substrate measured after 1 hr by Z'-LYTE assay relative to control
Platelet-derived growth factor receptor beta (Homo sapiens), sequence (P09619 whole entry, the tested form may be a part): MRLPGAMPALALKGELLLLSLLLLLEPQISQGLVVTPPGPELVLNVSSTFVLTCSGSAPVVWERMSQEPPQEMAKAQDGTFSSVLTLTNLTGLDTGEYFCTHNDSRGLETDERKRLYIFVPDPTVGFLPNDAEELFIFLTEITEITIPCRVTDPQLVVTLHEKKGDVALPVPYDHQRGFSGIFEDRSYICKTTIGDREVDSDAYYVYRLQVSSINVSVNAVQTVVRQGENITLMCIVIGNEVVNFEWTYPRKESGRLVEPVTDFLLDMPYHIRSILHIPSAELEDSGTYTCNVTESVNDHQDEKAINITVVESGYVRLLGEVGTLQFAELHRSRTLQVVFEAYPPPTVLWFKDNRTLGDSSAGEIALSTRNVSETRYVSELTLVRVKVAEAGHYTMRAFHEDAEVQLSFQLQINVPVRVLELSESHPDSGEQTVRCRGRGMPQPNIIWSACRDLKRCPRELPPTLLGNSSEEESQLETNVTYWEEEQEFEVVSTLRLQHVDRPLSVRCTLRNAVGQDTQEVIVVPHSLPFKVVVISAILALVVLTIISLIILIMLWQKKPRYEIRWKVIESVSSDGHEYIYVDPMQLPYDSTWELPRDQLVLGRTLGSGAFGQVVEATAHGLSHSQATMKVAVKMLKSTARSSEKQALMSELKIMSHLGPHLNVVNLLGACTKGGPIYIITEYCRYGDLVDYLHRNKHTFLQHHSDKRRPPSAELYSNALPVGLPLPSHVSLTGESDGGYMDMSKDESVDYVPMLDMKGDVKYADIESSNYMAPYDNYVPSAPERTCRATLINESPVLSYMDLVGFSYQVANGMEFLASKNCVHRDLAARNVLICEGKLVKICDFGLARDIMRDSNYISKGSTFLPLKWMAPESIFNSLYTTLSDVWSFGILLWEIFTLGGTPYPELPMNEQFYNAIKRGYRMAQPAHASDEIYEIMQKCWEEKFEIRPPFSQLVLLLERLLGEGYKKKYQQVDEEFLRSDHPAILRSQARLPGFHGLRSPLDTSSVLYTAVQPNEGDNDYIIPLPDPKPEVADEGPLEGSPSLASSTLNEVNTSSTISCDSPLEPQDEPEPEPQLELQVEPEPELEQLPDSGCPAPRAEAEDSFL

[13] = molecular target: Cyclin-dependent kinase 1/cyclin B1 (Homo sapiens) (UniProt P06493+P14635); assay: Inhibition of recombinant human full-length His-tagged CDK1/cyclin B expressed in insect cells at 2 uM using Ser/Thr 18 as substrate measured after 1 hr by Z'-LYTE assay relative to control; conditions: Insect cell
Cyclin-dependent kinase 1/cyclin B1 (Homo sapiens), sequence (P06493 whole entry, looked up, the tested form may be a part): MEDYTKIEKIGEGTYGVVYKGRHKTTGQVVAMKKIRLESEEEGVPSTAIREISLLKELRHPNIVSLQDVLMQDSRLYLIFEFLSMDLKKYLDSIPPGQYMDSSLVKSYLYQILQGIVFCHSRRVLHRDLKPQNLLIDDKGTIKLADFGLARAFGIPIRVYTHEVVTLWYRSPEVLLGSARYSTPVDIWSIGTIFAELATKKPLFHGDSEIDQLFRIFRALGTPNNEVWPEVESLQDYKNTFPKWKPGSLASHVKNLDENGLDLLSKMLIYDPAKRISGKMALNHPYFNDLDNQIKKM
Cyclin-dependent kinase 1/cyclin B1 (Homo sapiens), sequence (P14635 whole entry, looked up, the tested form may be a part): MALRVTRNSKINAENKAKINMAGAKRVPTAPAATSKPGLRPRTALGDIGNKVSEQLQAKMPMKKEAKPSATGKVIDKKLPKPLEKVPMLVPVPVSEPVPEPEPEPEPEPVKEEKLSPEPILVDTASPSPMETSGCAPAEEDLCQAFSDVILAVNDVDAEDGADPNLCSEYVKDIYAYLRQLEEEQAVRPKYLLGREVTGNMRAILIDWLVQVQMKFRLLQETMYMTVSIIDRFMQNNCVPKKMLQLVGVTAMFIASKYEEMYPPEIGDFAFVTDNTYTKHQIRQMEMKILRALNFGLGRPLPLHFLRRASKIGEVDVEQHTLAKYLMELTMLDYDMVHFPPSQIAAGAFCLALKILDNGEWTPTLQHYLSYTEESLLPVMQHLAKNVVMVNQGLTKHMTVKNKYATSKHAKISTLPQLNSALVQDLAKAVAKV

[14] = molecular target: Leukocyte tyrosine kinase receptor (Homo sapiens) (UniProt P29376); assay: Inhibition of recombinant human GST-tagged LTK (450-864 residues) expressed in insect cells at 2 uM using Tyr 06 as substrate measured after 1 hr by Z'-LYTE assay relative to control; conditions: Insect cell
HCT-116 = assay: Antitumor activity against human HCT-116 cells xenografted in female nude mouse model assessed as suppression in P-S6K at T389 level at 50 mg/kg, iv administered once a week and measured at least 8 hrs by immunoblot analysis; format: functional, organism-based
A498 = assay: Antiproliferative activity against human A498 cells assessed as cell growth inhibition at 10 micromol/L incubated for 3 days by MTS assay relative to control; format: functional; conditions: A498, 72 h, dose 10 µmol/L, time 3 day
[15] = molecular target: Ephrin type-A receptor 8 (Homo sapiens) (UniProt P29322); assay: Inhibition of recombinant human GST-tagged EPHA8 (565-1005 residues) expressed in insect cells at 2 uM using Tyr 02 as substrate measured after 1 hr by Z'-LYTE assay relative to control; conditions: Insect cell
MDA-MB-361 [16] = assay: Induction of apoptosis in PI3K/mTOR hyperactive human MDA-MB-361 cells assessed as massive cell death at 0.001 to 100 micromol/L incubated for 48 hrs by FACS analysis; format: functional, cell-based; conditions: dose 0.001-100 µmol/L
[17] = molecular target: Testis-specific serine/threonine-protein kinase 2 (Homo sapiens) (UniProt Q96PF2); assay: Inhibition of recombinant human full length His-tagged STK22B expressed in insect cells at 2 uM using Ser/Thr 04 as substrate measured after 1 hr by Z'-LYTE assay relative to control; conditions: Insect cell
[18] = molecular target: BDNF/NT-3 growth factors receptor (Homo sapiens) (UniProt Q16620); assay: Inhibition of recombinant human His-tagged NTRK2 (526-838 residues) expressed in insect cells at 2 uM using Tyr 01 as substrate measured after 1 hr by Z'-LYTE assay relative to control; conditions: Insect cell
BDNF/NT-3 growth factors receptor (Homo sapiens), sequence (Q16620 32-822 limits assumed): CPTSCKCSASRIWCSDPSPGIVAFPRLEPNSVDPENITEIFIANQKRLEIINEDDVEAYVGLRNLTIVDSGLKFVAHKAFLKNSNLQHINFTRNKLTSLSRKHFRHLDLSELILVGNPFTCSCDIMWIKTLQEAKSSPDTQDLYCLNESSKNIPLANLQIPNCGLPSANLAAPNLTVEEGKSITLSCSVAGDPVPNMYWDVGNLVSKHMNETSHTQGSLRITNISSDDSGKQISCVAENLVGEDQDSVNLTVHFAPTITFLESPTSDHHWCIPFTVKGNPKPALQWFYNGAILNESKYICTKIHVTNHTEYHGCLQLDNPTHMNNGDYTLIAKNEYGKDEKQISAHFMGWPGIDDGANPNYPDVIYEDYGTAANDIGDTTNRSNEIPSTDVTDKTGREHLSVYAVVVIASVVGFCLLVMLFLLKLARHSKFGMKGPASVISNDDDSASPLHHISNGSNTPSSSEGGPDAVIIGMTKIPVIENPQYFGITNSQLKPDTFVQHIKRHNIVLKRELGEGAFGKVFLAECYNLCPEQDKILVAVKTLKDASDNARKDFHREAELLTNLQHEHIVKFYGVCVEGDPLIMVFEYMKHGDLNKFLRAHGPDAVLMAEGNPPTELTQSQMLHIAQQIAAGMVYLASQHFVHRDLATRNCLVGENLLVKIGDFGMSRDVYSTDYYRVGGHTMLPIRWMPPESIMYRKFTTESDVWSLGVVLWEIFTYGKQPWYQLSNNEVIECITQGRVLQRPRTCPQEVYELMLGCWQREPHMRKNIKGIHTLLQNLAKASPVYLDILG

[19] = tested on: Fibroblast growth factor receptor 3 (Homo sapiens), P22607 [K650E]; assay: Inhibition of recombinant human His-tagged FGFR3 FGFR3 K650E mutant (398-806 residues) expressed in baculovirus expression system at 2 uM using Tyr 04 as substrate measured after 1 hr by Z'-LYTE assay relative to control
Fibroblast growth factor receptor 3 (Homo sapiens), P22607 [K650E], sequence (P22607 whole entry K650E, the tested form may be a part): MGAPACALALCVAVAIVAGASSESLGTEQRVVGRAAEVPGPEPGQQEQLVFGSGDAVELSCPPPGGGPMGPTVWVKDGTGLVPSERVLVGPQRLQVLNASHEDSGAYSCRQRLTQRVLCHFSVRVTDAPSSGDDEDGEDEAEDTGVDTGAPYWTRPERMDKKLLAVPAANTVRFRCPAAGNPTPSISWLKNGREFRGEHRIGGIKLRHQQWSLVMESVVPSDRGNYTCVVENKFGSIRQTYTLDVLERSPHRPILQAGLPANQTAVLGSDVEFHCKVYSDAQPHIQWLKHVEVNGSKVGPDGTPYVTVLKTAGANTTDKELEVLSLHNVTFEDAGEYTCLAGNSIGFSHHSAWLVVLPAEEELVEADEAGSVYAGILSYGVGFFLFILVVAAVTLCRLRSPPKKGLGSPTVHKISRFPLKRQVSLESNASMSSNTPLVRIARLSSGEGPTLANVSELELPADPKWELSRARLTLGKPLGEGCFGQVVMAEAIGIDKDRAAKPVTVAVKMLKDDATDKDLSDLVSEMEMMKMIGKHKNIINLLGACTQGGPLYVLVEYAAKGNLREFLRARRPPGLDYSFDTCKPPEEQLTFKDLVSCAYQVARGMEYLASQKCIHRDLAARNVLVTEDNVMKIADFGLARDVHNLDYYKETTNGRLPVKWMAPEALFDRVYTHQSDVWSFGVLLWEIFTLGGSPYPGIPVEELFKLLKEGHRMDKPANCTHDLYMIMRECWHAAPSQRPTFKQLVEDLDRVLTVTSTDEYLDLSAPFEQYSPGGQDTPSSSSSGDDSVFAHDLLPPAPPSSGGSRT

[20] = molecular target: Ribosomal protein S6 kinase alpha-3 (Homo sapiens) (UniProt P51812); assay: Inhibition of recombinant human full length His-tagged RPS6KA3 expressed in baculovirus expression system at 2 uM using Ser/Thr 06 as substrate measured after 1 hr by Z'-LYTE assay relative to control
Ribosomal protein S6 kinase alpha-3 (Homo sapiens), sequence (P51812 whole entry, canonical isoform): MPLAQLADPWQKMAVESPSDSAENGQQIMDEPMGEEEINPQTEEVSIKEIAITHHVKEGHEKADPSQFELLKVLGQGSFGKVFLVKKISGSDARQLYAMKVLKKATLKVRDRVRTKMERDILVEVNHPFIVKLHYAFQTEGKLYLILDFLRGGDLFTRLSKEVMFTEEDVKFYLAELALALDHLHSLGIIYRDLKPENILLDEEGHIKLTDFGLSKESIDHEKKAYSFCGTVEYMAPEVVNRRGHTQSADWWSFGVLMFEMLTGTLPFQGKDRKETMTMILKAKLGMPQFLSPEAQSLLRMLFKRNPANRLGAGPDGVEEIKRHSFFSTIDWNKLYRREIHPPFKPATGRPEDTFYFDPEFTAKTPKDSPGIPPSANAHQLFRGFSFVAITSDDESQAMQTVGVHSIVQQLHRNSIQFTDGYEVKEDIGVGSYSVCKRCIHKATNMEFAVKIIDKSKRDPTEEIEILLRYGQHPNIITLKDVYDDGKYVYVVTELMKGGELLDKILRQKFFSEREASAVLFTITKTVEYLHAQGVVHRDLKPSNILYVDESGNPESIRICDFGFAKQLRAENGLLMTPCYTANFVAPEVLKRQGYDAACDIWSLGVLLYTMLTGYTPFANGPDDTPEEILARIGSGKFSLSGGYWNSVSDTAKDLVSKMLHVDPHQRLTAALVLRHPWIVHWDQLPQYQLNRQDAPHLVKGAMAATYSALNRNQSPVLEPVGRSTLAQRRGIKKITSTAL

[21] = molecular target: Phosphorylase b kinase gamma catalytic chain, skeletal muscle/heart isoform (Homo sapiens) (UniProt Q16816); assay: Inhibition of recombinant human full length GST-tagged PHKG1 expressed in insect cells at 2 uM using Ser/Thr 07 as substrate measured after 1 hr by Z'-LYTE assay relative to control; conditions: Insect cell
[22] = molecular target: Dual specificity tyrosine-phosphorylation-regulated kinase 1A (Homo sapiens) (UniProt Q13627); assay: Inhibition of recombinant human full-length GST-tagged DYRK1A expressed in insect cells at 2 uM using Ser/Thr 18 as substrate measured after 1 hr by Z'-LYTE assay relative to control; conditions: Insect cell

With `CNC(=O)Nc1ccc(-c2nc(N3CC4CCC(C3)O4)c3cnn(C4CCC5(CC4)OCCO5)c3n2)cc1` the inhibition [1] was 3%, the inhibition [2] was 5% and the inhibition [3] was 5%. The inhibition [4] was -5%, the inhibition (mTORC2 (Homo sapiens) [5]) was “Active” and the Activity (MDA-MB-361 [6]) was “Dose-Dependent Effect”. The inhibition [7] was 5%, the inhibition (mTORC2 (Homo sapiens) [8]) was “inactive” and the inhibition [9] was 13%. For the same compound, the inhibition [10] was 7%, the inhibition [11] was 7% and the Activity (A549) was “Active”. For the same compound, the inhibition [12] was 2%, the inhibition [13] was 6% and the inhibition [14] was 8%. The Activity (HCT-116) was “Active”, the inhibition at 10 µM (A498) was 100% and the inhibition [15] was 24%. The Activity (MDA-MB-361 [16]) was “Active”, the inhibition [17] was 2% and the inhibition [18] was 1%. The inhibition [19] was 6%, the inhibition [20] was -2% and the inhibition [21] was 7%. For the same compound, the inhibition [22] was 2%.
